Laboratory results as given in US8143403B2 (Bristol-Myers Squibb Company, priority 2008, dated 2012).
Marks after values point to notes of the source that are not given here. No end group written: not given here.

Legend:
[1] = test system: CGRP-induced increase in laser Doppler facial blood flow; assay: Inhibition of CGRP-induced increase in laser Doppler facial blood flow in non-human primate; format: in vivo, common marmoset (Callithrix jacchus)
Protocol: FIG. 4. […] Data are peak % change from baseline±sem, with each animal serving as its own control.
Saturation/Scatchard Analysis. […] Saturation data were analyzed using a one site binding equation to estimate apparent equilibrium dissociation constant (Kd) and the maximum number of binding sites (Bmax) (Prizm v4.0, Graphpad). […] Functional Antagonism/Schild analysis. Agonist stimulation of CGRP receptor complex leads to cyclic AMP (adenosine 3′5′-cyclic monophosphate) production via Gs-dependent activation of an adenylate cyclase (Juaneda C et al., TiPS, 2000; 21:432-438). Consequently, CGRP receptor antagonists inhibit CGRP-induced cyclic AMP formation in SK-N-MC cells which natively express the CGRP receptor complex (Doods H et al., Br J Pharmacol, 2000; 129(3):420-423). […] A Schild analysis format was used, which allowed investigation of the mechanism of antagonism. […] Various concentrations of CGRP were added and the cells were allowed to incubate 30 min at room temperature. The cells were lysed with lysis reagent and cAMP concentrations were determined by HTRF according to the manufacturer's instructions. A standard curve using known quantities of cAMP was evaluated in parallel to allow conversion of HTRF ratio to nM cAMP. The resulting curves were then evaluated using a Gaddum/Schild equation individually and with global fitting (Prizm v4.0, Graphpad). […] To obtain a global fit the following parameters were shared (top, bottom, logEC50, Hill slope and pA2) and all curves were fit simultaneously. […] Non-Terminal Method for Assessing In Vivo Efficacy of Small Molecule CGRP-Receptor Antagonists in Mammals Overview. […] Non-human primates (e.g., marmosets) are the only animals known to have human-like CGRP receptor pharmacology conferred by the presence of the specific amino acid residue (Trp74) in their RAMP1 sequence which is responsible for the phenotype of the human receptor (Mallee et al. J Biol Chem 2002 277:14294). Since current migraine models primarily use rats (Escott et al. Brain Res 1995 669:93; Williamson et al. Cephalalgia 1997 17:525), or are invasive, terminal procedures in primates (Doods et al. Br J Pharmacol 2000 129:420), a novel non-invasive, survival model in non-human primates for in vivo efficacy assessment of CGRP-receptor antagonists was developed. […] Peptide and small-molecule CGRP-receptor antagonists were used to validate the non-human primate model. […] Animals. Adult male and female common marmosets (Callithrix jacchus) purchased from Harlan and weighing 350-550 g served as subjects. Anesthesia & Surgical Preparation. Animals are anesthetized by isoflurane inhalation in an induction chamber (4-5% rapid induction, maintained with 1-2.5%; Solomon et al., 1999).

[2] = test system: i.v. hαCGRP-induced increase in middle meningeal artery diameter and facial blood flow; assay: Validation of facial blood flow as surrogate for intracranial artery dilation in the rat; format: in vivo; conditions: pretreatment, n=5 rats

For “haCGRP(8-37): peptide antagonist, peptide fragment CGRP(8-37) (VTHRLAGLLSRSGGVVKNNFVPTNVGSKAF; ends and bridges not checked; UniProt P06881 90-119, looked up, fragment) [reference compound]”, the “% Inhibition” value ([1]; 1 mg/kg i.v., pretreat 0 min, 15 min, hαCGRP 10 μg/kg i.v.) was 87.2* %, the “inhibition of i.v. CGRP-stimulated increases in primate facial blood flow” value ([1]; pre-treatment) was “dose-dependently inhibited” and the “inhibition of i.v. hαCGRP-induced increase in facial blood flow” value [2] was 50%. For the same substance, the “inhibition of i.v. hαCGRP-induced increase in middle meningeal artery diameter” value [2] was 50%.
